Test results reported in patent US20130102591A1, “COMPOSITIONS AND METHODS FOR PREVENTION AND TREATMENT OF PULMONARY HYPERTENSION” (priority 2010, published 2013).
Entries after “also recorded” stand apart in the source; their conditions may differ.

Assays:
[1] = tested on: MCT-induced pulmonary hypertension; details: reported in the literature; cited from earlier work
[2] = tested on: MCT-induced histological alterations in the lung; assay: Lung histology (optical microscopy) in the MCT rat pulmonary hypertension model; type: in vivo, Sprague-Dawley rats; details: for Fibrosis score: 10 days starting 38 days after MCT; for Effect on histological lung injury (alveolar damage, inflammatory cell infiltrate, vascular smooth muscle hypertrophy), in words: groups 3 and 4 versus vehicle control (group 2)
Method: (§1) Adult male Sprague-Dawley rats (250-350 g) (3 groups; n=5 per group) were treated with a single subcutaneous injection of monocrotaline (MCT; 60 mg/kg), a plant poison that induces a well-characterized experimental model of pulmonary hypertension, or an equivalent volume of saline (2 ml/kg; control). […] At the conclusion of the 10-day dosing period, rats were anesthetized and instrumented, and resting hemodynamic indices were recorded.
The lower lobe of the right lung was fixed with formalin solution. After paraffin embedding, […] sections were stained with haematoxylin and eosin and observed in a Dialux 22 Leitz (Wetziar, Germany) microscope. The score of lung fibrosis was assessed on sections stained with Masson Trichrome staining. For morphometric evaluations, all three lobes of right lung were inspected. […] Results are expressed as the percentage of vessels presenting indices of disease relative to the total number of vessels counted in the sections.

[3] = Solubility in solvents and aqueous liquids
[4] = Tolerability during 10-day dosing in MCT rats (body weight, activity level); type: in vivo, Sprague-Dawley rats
Method: as §1

[5] = tested on: MCT-induced pulmonary hypertension; assay: Mean pulmonary arterial pressure in the monocrotaline (MCT) rat pulmonary hypertension model; type: in vivo, Sprague-Dawley rats; details: 10 days of therapy starting 38 days after MCT
Method: as §1
Rats were anesthetized with intramuscular ketamine (90 mg/kg) and pentobarbital sodium (15 mg/kg). The trachea was exposed and cannulated with a plastic tube that was connected to a Harvard ventilator. The animals were ventilated with room air at a tidal volume of 1.5 ml at a rate of 100 breaths/minute. A polyethylene catheter (PE-50) was inserted into the right carotid artery to measure the mean systemic arterial pressure (SAP). A polyvinyl (PV-1) catheter was inserted through the right jugular vein via the right atrium and ventricle into the pulmonary artery for measurement of the mean pulmonary arterial pressure (MPAP).

[6] = Group 3: MCT + compound 1a, 1.5 mg/kg/day BID, IP
[7] = Group 4: MCT + compound 1a, 2 mg/kg/day BID, PO
[8] = listed as 3-nitratomethyl-2,2,5,5-tetramethylpyrrolidinyloxy

Compound	Effect in the same rodent model with comparably delayed initiation of therapy [1]	Protection by chronic oral (enteral) treatment compared with IP treatment ([2]; 2 mg/kg/day PO versus 1.5 mg/kg/day BID IP)	Alveolar damage [2, 6]	Angioedema score [2, 6]	Muscolaris thickening score [2, 6]	Perivascular infiltrate score [2, 6]	Fibrosis score [2, 6]	Alveolar damage [2, 7]	Angioedema score [2, 7]	Muscolaris thickening score [2, 7]	Perivascular infiltrate score [2, 7]	Fibrosis score [2, 7]	Effect on histological lung injury (alveolar damage, inflammatory cell infiltrate, vascular smooth muscle hypertrophy), in words [2]	Effect on histological lung injury (alveolar damage, inflammatory cell infiltrate, vascular smooth muscle hypertrophy), in words [2, 8]	Solubility in ethyl acetate and dimethylsulfoxide (DMSO) [3]	Solubility in non-toxic aqueous liquids suitable for human administration ([3]; water, saline, dextrose solution, polyethylene glycol)	Effect on body weight or activity level [4]	Tolerability [4]	Effect on elevation of pulmonary (arterial) hypertension, in words [5]	Effect on elevation of pulmonary (arterial) hypertension, in words [5, 8]
COc1ccccc1Oc1c(NS(=O)(=O)c2ccc(C(C)(C)C)cc2)nc(-c2ncccn2)nc1OCCO [bosentan]	no effect	–	–	–	–	–	–	–	–	–	–	–	–	–	–	–	–	–	–	–
CC1(C)CC(CO[N+](=O)[O-])C(C)(C)N1[O] (centres unmarked) [compound 1a, 3-nitratomethyl-2,2,5,5-tetramethylpyrrolidinyloxy]	–	slightly more protective	0.50 ± 0.35	10.00 ± 8.86 percentage of vessels	0.00 ± 0.00 percentage of vessels	5.95 ± 5.71 percentage of vessels	0.80 ± 0.57	0.70 ± 0.45	7.00 ± 2.78 percentage of vessels	0.00 ± 0.00 percentage of vessels	6.06 ± 2.44 percentage of vessels	1.00 ± 0.79	significantly reduced; also recorded: remarkably reduced	significantly reduced	soluble	insoluble	absence of any effect	well tolerated	highly effective; also recorded: significantly reduced	significantly reduced
